One compound from ChEMBL document CHEMBL5620360, “Design, synthesis and biological evaluation of 4-(4-aminophenoxy)picolinamide derivatives as potential antitumor agents” (Eur J Med Chem, 2023) can be followed below.

The subject of series [1] is A549. Kind of series: Induction of cell cycle arrest in human A549 cells assessed as accumulation of cells at G1 phase at 5 uM incubated for 24 hrs by propidium iodide staining based flow cytometry (reference value: 54.46%). It is filed as functional. A general note: Flow cytometry measures light scatter and fluorescence of single cells or particles in a stream.
The subject of series [2] is A549. The series can be described thus: Induction of cell cycle arrest in human A549 cells assessed as accumulation of cells at G1 phase at 10 uM incubated for 24 hrs by propidium iodide staining based flow cytometry (reference value: 54.46%). It is filed as functional.
Series [3] concerns A549. Kind of series: Induction of apoptosis in human A549 cells assessed as early apoptotic cells at 5 uM measured after 24 hrs by AnnexinV-FITC/PI staining based flow cytometry (reference value: 1.26%). It is filed as functional.
Series [4] has as its system A549. Kind of series: Induction of apoptosis in human A549 cells assessed as viable cells at 5 uM measured after 24 hrs by AnnexinV-FITC/PI staining based flow cytometry (reference value: 93.25%). It is filed as functional. To be noted: read-out: Activity.
In series [5] the test system is A549. The series can be described thus: cells. The note with it: Homo sapiens, A549, 72 h.
Series [6] in a line: Cmax in Sprague-Dawley rat at 1 mg/kg, iv by LC-MS/MS analysis. It is filed as ADME, organism-based. To be noted: in vivo.
For series [7], the system named is A549. The series can be described thus: Induction of cell cycle arrest in human A549 cells assessed as accumulation of cells at S phase at […] incubated for 24 hrs by propidium iodide staining based flow cytometry (reference value: 38.18%). It is filed as functional. To be noted: dose 2.5 µM.
The test system of series [8] is A549. Kind of series: Induction of apoptosis in human A549 cells assessed as necrotic cells at […] measured after 24 hrs by AnnexinV-FITC/PI staining based flow cytometry (reference value: 4.01%). It is filed as functional. To be noted: dose 2.5 µM.
Series [9] in a line: AUC(0 to t) in Sprague-Dawley rat at 10 mg/kg, po by LC-MS/MS analysis. The note with it: in vivo. In kind it is ADME, organism-based.
Series [10] relates to A549. The series can be described thus: Induction of cell cycle arrest in human A549 cells assessed as accumulation of cells at S phase at 10 uM incubated for 24 hrs by propidium iodide staining based flow cytometry (reference value: 38.18%). In kind it is functional.
The target in series [11] is Mast/stem cell growth factor receptor Kit (Homo sapiens, UniProt P10721). Kind of series: Inhibition of c-Kit (unknown origin).
The test system of series [12] is A549. Kind of series: Potency index, ratio of cabozantinib IC50 to test compound IC50 for antiproliferative activity against human A549 cells. In kind it is functional.
For series [13], the system named is A549. The series can be described thus: Induction of apoptosis in human A549 cells assessed as late apoptotic cells at 10 uM measured after 24 hrs by AnnexinV-FITC/PI staining based flow cytometry (reference value: 1.47%). It is filed as functional.
The test system of series [14] is A549. Kind of series: Induction of apoptosis in human A549 cells assessed as viable cells at […] measured after 24 hrs by AnnexinV-FITC/PI staining based flow cytometry (reference value: 93.25%). It is filed as functional. To be noted: dose 2.5 µM, read-out: Activity.
A short description of series [15]: Half life in Sprague-Dawley rat at 1 mg/kg, iv by LC-MS/MS analysis. To be noted: in vivo. In kind it is ADME, organism-based.

pIC50: −log10 of the molar value.

Mast/stem cell growth factor receptor Kit, sequence (P10721 whole entry): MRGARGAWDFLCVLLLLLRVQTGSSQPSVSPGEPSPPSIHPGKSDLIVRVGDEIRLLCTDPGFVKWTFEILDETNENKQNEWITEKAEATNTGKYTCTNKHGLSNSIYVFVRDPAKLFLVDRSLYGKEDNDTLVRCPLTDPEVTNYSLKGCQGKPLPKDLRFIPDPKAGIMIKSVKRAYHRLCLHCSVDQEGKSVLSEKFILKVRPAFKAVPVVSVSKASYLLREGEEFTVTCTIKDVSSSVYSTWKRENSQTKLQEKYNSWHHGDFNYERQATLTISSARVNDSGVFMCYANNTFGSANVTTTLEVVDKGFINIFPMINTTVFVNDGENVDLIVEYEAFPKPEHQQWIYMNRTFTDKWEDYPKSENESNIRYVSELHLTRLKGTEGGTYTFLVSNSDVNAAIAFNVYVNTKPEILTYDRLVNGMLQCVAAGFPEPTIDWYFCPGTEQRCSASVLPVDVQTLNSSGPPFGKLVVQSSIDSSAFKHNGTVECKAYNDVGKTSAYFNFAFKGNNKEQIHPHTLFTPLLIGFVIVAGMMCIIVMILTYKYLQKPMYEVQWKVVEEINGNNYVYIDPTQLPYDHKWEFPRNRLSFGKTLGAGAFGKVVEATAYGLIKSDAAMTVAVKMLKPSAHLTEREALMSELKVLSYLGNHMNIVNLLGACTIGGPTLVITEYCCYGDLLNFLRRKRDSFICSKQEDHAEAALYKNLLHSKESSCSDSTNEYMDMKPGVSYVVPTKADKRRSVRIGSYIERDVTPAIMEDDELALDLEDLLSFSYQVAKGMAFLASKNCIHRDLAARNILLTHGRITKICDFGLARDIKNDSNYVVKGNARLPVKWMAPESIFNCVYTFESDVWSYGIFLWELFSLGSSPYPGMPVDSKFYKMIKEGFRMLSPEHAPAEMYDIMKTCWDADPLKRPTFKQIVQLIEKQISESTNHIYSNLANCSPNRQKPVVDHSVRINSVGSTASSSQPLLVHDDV

What is called pIC50 is the negative decadic logarithm of the IC50, by convention in mol/L. Low values mean a large IC50, high ones a small IC50. Usually Cmax stands for the peak of the concentration-time curve. As a reminder, the AUC(0-t) is the area under the concentration-time curve up to a stated or last time point. A higher AUC(0-t) goes with high exposure. As a reminder, the half-life is how long it takes for the measured level to halve. As to `O=C(NCCCN1CCOCC1)c1cc(Oc2ccc(NC(=O)c3cn(-c4ccc(F)c(Cl)c4)c4ncccc4c3=O)cc2F)ccn1`, the Activity in the series with A549 [1] is recorded as 57.38%; in the series on A549 [2] it was 58.67%; in the series with A549 [3], 3.02%; in the series on A549 [7], 35.16%; in the series with A549 [8] it was 3.34%; with A549 [10], 28.68%. For the same compound, in the series on A549 [13], the Activity was found to be 8.25%. Further, in the series with A549 [4], the viability at 5 µM was found to be 85.2%. The negative-log IC50 (pIC50) with A549 [5] is 6.59; in series [11], less than 4.00. In addition, the Cmax in series [6] worked out at 1630 ng/mL. Also, the AUC(0-t) in series [9] was found to be 3320 ng·h/mL. Besides, in the series on A549 [12], the “Ratio IC50” value is given as 2.4. Moreover, in the series with A549 [14], the viability at […] was 93.1%. The compound also had a half-life in [15] of 2.5 h.
